As usually defined, the IC50 is the concentration needed to halve the response being measured.

SMILES strings stand for the structures.

Consider 20 compounds from patent US8415340B2, “Triazine kinase inhibitors” (Bristol-Myers Squibb Company, priority 2007, dated 2013).

Assay [1] addresses IGF1-receptor (Homo sapiens, UniProt P08069). Nature of the assay: IGF1-Receptor Tyrosine Kinase Assay. The format is biochemical. As to conditions: in vitro kinase; ATP 25 μM; read-out: IGF1R kinase IC50. The protocol: D. IGF1-Receptor Tyrosine Kinase Assay
The assays were performed in U-bottom 384-well plates. The final assay volume was 30 μl prepared from 15 μl additions of enzyme and substrates (fluoresceinated IGF1R substrate peptide and ATP) and test compounds in assay buffer (100 mM HEPES pH 7.4, 10 mM MnCl2, 0.015% Brij35 and 4 mM DTT). The reaction was initiated by the combination of IGF1-receptor with substrates and test compounds. The reaction was incubated at room temperature for 60 min. and terminated by adding 30 μl of 35 mM EDTA to each sample. The reaction mixture was analyzed on the Caliper LabChip 3000 by electrophoretic separation of the fluorescent substrate and phosphorylated product. Inhibition data were calculated by comparison to no enzyme control reactions for 100% inhibition and vehicle-only reactions for 0% inhibition. The final concentration of reagents in the assays is ATP, 25 μM; FL-peptide, 1.5 μM; IGF1-Receptor, 14 nM; and DMSO, 1.6%. Dose response curves were generated to determine the concentration required inhibiting 50% of kinase activity (IC50). Compounds were dissolved at 10 mM in dimethylsulfoxide (DMSO) and evaluated at eleven concentrations, each in duplicate. IC50 values were derived by non-linear regression analysis.

Assay [2] concerns IGF1R-Sal tumors. The experiment in a line: IGF-1R Sal Tumor Model. Format: in vivo. As to conditions: orally, qd × 4 days, nude mice bearing IGF1R-Sal tumors. The protocol: P. IGF-1R Sal Tumor Model
A salivary gland adenocarcinoma that developed spontaneously in a transgenic mouse (MCI-19) was excised and cut into fragments of about 20 mg. Tumor fragments were implanted s.c. into the ventral thoracic region of a group of six female, athymic BALB/c nu/nu mice (Harley Sprague-Dawley, Indianapolis, Ind.), using a 13-gauge trocar. Once established, the salivary gland-derived tumor line was designated IGF1R-Sal and was propagated as a tumor xenograft in nude mice. Tumors were passaged every 2 weeks, at which time the tumor reached f500 to 1,000 mm3 in size. For treatment studies, nude micebearing IGF1R-Sal tumors of about 100 mm3 in size were sorted into groups of five for treatment with vehicle (80% polyethylene glycol 400 in water) alone or the test article. Compounds were administered either on a bid schedule (oral doses 8 hours apart) or on a once a day schedule orally (qd) for 4 consecutive days. Tumors were measured at the start and end of treatment. Activity was measured as % tumor growth inhibition (% TGI). The % TGI was determined using the following formula (Ct−Tt)/(Ct−Co) where Ct is defined as the median tumor size of the control group at the end of treatment, Co is defined as the median tumor size of the control group at the start of treatment, and Tt is defined as the median tumor size of the treated group at the end of treatment.

Chain of IGF1-receptor (P08069 31-1367): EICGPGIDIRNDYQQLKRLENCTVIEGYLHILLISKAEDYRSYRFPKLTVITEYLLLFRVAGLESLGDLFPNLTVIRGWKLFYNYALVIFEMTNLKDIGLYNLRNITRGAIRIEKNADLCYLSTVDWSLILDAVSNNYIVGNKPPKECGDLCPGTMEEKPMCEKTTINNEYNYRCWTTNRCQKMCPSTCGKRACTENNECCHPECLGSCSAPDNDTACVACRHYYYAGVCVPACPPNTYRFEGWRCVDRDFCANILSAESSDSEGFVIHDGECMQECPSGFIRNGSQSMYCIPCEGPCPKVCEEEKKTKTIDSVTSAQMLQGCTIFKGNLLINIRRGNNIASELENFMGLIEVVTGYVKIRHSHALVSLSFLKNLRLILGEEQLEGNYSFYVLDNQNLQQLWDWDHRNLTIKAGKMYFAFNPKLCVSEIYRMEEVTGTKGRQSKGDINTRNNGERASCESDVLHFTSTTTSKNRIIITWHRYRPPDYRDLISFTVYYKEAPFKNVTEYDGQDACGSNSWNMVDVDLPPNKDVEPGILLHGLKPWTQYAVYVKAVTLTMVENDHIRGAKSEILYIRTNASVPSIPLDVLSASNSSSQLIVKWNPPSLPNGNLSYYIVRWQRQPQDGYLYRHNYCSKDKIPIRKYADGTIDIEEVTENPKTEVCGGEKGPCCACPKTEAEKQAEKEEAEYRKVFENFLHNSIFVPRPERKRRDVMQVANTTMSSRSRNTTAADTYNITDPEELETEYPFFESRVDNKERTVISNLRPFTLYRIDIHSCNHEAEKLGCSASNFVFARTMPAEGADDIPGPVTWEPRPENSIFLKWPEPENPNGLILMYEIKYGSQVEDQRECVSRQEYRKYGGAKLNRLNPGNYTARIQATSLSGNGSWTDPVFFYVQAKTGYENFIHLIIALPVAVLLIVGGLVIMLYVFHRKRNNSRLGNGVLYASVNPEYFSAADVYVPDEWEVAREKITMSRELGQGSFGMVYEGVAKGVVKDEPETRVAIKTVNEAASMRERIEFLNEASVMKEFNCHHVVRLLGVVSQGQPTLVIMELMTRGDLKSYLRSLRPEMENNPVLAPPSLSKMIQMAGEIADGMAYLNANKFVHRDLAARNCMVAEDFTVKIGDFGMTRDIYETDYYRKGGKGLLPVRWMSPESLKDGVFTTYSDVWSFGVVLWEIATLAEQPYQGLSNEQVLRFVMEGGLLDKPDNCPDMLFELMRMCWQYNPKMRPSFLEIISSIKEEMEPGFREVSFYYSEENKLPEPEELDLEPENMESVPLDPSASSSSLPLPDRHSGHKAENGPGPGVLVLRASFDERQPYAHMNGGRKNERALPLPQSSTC

For the compound `COCCN1CCN(c2nc(Nc3cc(C4CC4)n[nH]3)nc(N3C[C@@H](O)C[C@H]3C(=O)Nc3cnccn3)n2)CC1` [Example 87, (2S,4S)-1-(4-(3-Cyclopropyl-1H-pyrazol-5-ylamino)-6-(4-(2-methoxyethyl)piperazin-1-yl)-1,3,5-triazin-2-yl)-4-hydroxy-N-(pyrazin-2-yl)pyrrolidine-2-carboxamide], in assay [1], the IC50 was 2 nM.

Take `O=C(N[C@H]1CCCN(c2nc(Nc3cc(C4CC4)n[nH]3)nc(N3C[C@H](F)C[C@H]3C(=O)Nc3cnccn3)n2)C1)C1CC1` [Example 72, (2S,4R)-1-(4-((S)-3-(Cyclopropanecarboxamido)piperidin-1-yl)-6-(3-cyclopropyl-1H-pyrazol-5-ylamino)-1,3,5-triazin-2-yl)-4-fluoro-N-(pyrazin-2-yl)pyrrolidine-2-carboxamide]: in assay [1], the IC50 was determined as 56 nM.

As for `CO[C@H]1C[C@@H](C(=O)N[C@@H]2CCCN(C)C2)N(c2nc(Nc3cc(C4CC4)[nH]n3)nc(N3CCOCC3)n2)C1` [Example 113, (2S,4S)-1-(4-(5-Cyclopropyl-1H-pyrazol-3-ylamino)-6-morpholino-1,3,5-triazin-2-yl)-4-methoxy-N—((R)-1-methylpiperidin-3-yl)pyrrolidine-2-carboxamide], the IC50 in assay [1] came out at 7 nM.

As to `CO[C@H]1C[C@@H](C(=O)Nc2cnccn2)N(c2nc(Nc3cc(C4CC4)[nH]n3)nc(-n3nc(C4CC4)cc3N)n2)C1` [Example 58, (2S,4S)-1-(4-(5-Amino-3-cyclopropyl-1H-pyrazol-1-yl)-6-(5-cyclopropyl-1H-pyrazol-3-ylamino)-1,3,5-triazin-2-yl)-4-methoxy-N-(pyrazin-2-yl)pyrrolidine-2-carboxamide], in assay [1], the IC50 amounted to 95 nM.

For the compound `CN1CCN(c2nc(Nc3cc(C4CC4)n[nH]3)nc(N3C[C@H](F)C[C@H]3C(=O)Nc3ncns3)n2)CC1` [Example 83, (2S,4R)-1-(4-(3-Cyclopropyl-1H-pyrazol-5-ylamino)-6-(4-methylpiperazin-1-yl)-1,3,5-triazin-2-yl)-4-fluoro-N-(1,2,4-thiadiazol-5-yl)pyrrolidine-2-carboxamide], the “% TGI (50 mpk)” value in assay [2] (50 mpk) is given as 27%.

With `CN1CCN(c2nc(Nc3cc(C4CC4)n[nH]3)nc(N3[C@H](C(=O)Nc4cnccn4)C[C@@H]4C[C@@H]43)n2)CC1` [Example 122, (1S,3S,5S)-2-(4-(3-Cyclopropyl-1H-pyrazol-5-ylamino)-6-(4-methylpiperazin-1-yl)-1,3,5-triazin-2-yl)-N-(pyrazin-2-yl)-2-azabicyclo[3.1.0]hexane-3-carboxamide], in assay [1], the IC50 is 7 nM.

Turning to `O=C(Nc1cnccn1)[C@@H]1C[C@H](O)CN1c1nc(Nc2cc(C3CC3)n[nH]2)nc(N2CCOCC2)n1` [Example 85, (2S,4S)-1-(4-(3-Cyclopropyl-1H-pyrazol-5-ylamino)-6-morpholino-1,3,5-triazin-2-yl)-4-hydroxy-N-(pyrazin-2-yl)pyrrolidine-2-carboxamide], the “% TGI (6.25 mpk)” value in assay [2] (6.25 mpk) amounted to 49%.

`CN1CC2CC1CN2c1nc(Nc2cc(C3CC3)[nH]n2)nc(N2C[C@@H](O)C[C@@]2(C)C(=O)Nc2nccs2)n1` (stereo partly drawn) [Example 104, (2S,4S)-1-(4-(5-Cyclopropyl-1H-pyrazol-3-ylamino)-6-(5-methyl-2,5-diazabicyclo[2.2.1]heptan-2-yl)-1,3,5-triazin-2-yl)-4-hydroxy-2-methyl-N-(thiazol-2-yl)pyrrolidine-2-carboxamide]: the IC50 in assay [1] was 43 nM.

Regarding `O=C(Nc1cnccn1)[C@@H]1CC(F)(F)CN1c1nc(Nc2cc(C3CC3)n[nH]2)nc(N2CCN(CCO)CC2)n1` [Example 119, (S)-1-(4-(3-Cyclopropyl-1H-pyrazol-5-ylamino)-6-(4-(2-hydroxyethyl)piperazin-1-yl)-1,3,5-triazin-2-yl)-4,4-difluoro-N-(pyrazin-2-yl)pyrrolidine-2-carboxamide], the concentration for half-maximal inhibition (IC50) in assay [1] worked out at 3 nM.

`COCCN1CCN(c2nc(Nc3cc(C4CC4)n[nH]3)nc(N3C[C@@H](OC)C[C@H]3C(=O)Nc3cnccn3)n2)CC1` [Example 25, (2S,4S)-1-(4-(3-Cyclopropyl-1H-pyrazol-5-ylamino)-6-(4-(2-methoxyethyl)piperazin-1-yl)-1,3,5-triazin-2-yl)-4-methoxy-N-(pyrazin-2-yl)pyrrolidine-2-carboxamide]: in assay [1], the concentration for half-maximal inhibition (IC50) amounted to 3 nM.

For the compound `CO[C@H]1C[C@@H](C(=O)Nc2ccc(F)nc2)N(c2nc(Nc3cc(C4CC4)n[nH]3)nc(N3CCOCC3)n2)C1` [Example 62, (2S,4S)-1-(4-(3-Cyclopropyl-1H-pyrazol-5-ylamino)-6-morpholino-1,3,5-triazin-2-yl)-N-(6-fluoropyridin-3-yl)-4-methoxypyrrolidine-2-carboxamide], the half-maximal inhibitory concentration (IC50) in assay [1] was 2 nM.

With `CO[C@H]1C[C@@H](C(=O)Nc2cnccn2)N(c2nc(Nc3cc(C4CC4)n[nH]3)nc(N3CCN(S(C)(=O)=O)CC3)n2)C1` [Example 46, (2S,4S)-1-(4-(3-Cyclopropyl-1H-pyrazol-5-ylamino)-6-(4-(methylsulfonyl)piperazin-1-yl)-1,3,5-triazin-2-yl)-4-methoxy-N-(pyrazin-2-yl)pyrrolidine-2-carboxamide], in assay [1], the half-maximal inhibitory concentration (IC50) came out at 3 nM.

As for `COc1nc(Nc2cc(C3CC3)[nH]n2)nc(N2C[C@@H](OC)C[C@H]2C(=O)Nc2cnccn2)n1` [Example 20, (2S,4S)-1-(4-(5-Cyclopropyl-1H-pyrazol-3-ylamino)-6-methoxy-1,3,5-triazin-2-yl)-4-methoxy-N-(pyrazin-2-yl)pyrrolidine-2-carboxamide], in assay [1], the IC50 amounted to 7 nM.

With `CN1CCN(c2nc(Nc3cc(C4CC4)n[nH]3)nc(N3CC(F)(F)C[C@H]3C(=O)Nc3cnccn3)n2)CC1` [Example 117, (S)-1-(4-(3-Cyclopropyl-1H-pyrazol-5-ylamino)-6-(4-methylpiperazin-1-yl)-1,3,5-triazin-2-yl)-4,4-difluoro-N-(pyrazin-2-yl)pyrrolidine-2-carboxamide], the half-inhibitory concentration (IC50) in assay [1] came out at 7 nM.

Regarding `O=C(Nc1ncns1)[C@@H]1C[C@@H](F)CN1c1nc(Nc2cc(C3CC3)n[nH]2)nc(N2CCOCC2)n1` [Example 82, (2S,4R)-1-(4-(3-Cyclopropyl-1H-pyrazol-5-ylamino)-6-morpholino-1,3,5-triazin-2-yl)-4-fluoro-N-(1,2,4-thiadiazol-5-yl)pyrrolidine-2-carboxamide], in assay [1], the IC50 was 7 nM.

With `CO[C@H]1C[C@@H](C(=O)Nc2cnccn2)N(c2nc(Nc3cc(C4CC4)[nH]n3)nc(N3CCSCC3)n2)C1` [Example 34, (2S,4S)-1-(4-(5-Cyclopropyl-1H-pyrazol-3-ylamino)-6-thiomorpholino-1,3,5-triazin-2-yl)-4-methoxy-N-(pyrazin-2-yl)pyrrolidine-2-carboxamide], in assay [1], the IC50 turned out to be 3 nM.

As for `CN1CCN(c2nc(Nc3cc(C4CC4)[nH]n3)nc(N3C[C@@H](O)C[C@@]3(C)C(=O)Nc3nccs3)n2)CC1` [Example 102, (2S,4S)-1-(4-(5-Cyclopropyl-1H-pyrazol-3-ylamino)-6-(4-methylpiperazin-1-yl)-1,3,5-triazin-2-yl)-4-hydroxy-2-methyl-N-(thiazol-2-yl)pyrrolidine-2-carboxamide], the IC50 in assay [1] amounted to 44 nM.

With `Cc1cnc(NC(=O)[C@]2(C)C[C@H](O)CN2c2nc(Nc3cc(C4CC4)[nH]n3)nc(N3CCOCC3)n2)s1` [Example 105, (2S,4S)-1-(4-(5-Cyclopropyl-1H-pyrazol-3-ylamino)-6-morpholino-1,3,5-triazin-2-yl)-4-hydroxy-2-methyl-N-(5-methylthiazol-2-yl)pyrrolidine-2-carboxamide], the IC50 in assay [1] amounted to 89 nM.

Regarding `CO[C@H]1C[C@@H](C(=O)Nc2cnccn2)N(c2nc(NCCN(C)C)nc(Nc3cc(C4CC4)n[nH]3)n2)C1` [Example 27, (2S,4S)-1-(4-(3-Cyclopropyl-1H-pyrazol-5-ylamino)-6-(2-(dimethylamino)ethylamino)-1,3,5-triazin-2-yl)-4-methoxy-N-(pyrazin-2-yl)pyrrolidine-2-carboxamide], the half-maximal inhibitory concentration (IC50) in assay [1] came to 7 nM.

Turning to `COCCN1CCN(c2nc(Nc3cc(C4CC4)[nH]n3)nc(N3C[C@@H](O)C[C@@]3(C)C(=O)Nc3nccs3)n2)CC1` [Example 103, (2S,4S)-1-(4-(5-Cyclopropyl-1H-pyrazol-3-ylamino)-6-(4-(2-methoxyethyl)piperazin-1-yl)-1,3,5-triazin-2-yl)-4-hydroxy-2-methyl-N-(thiazol-2-yl)pyrrolidine-2-carboxamide], the concentration for half-maximal inhibition (IC50) in assay [1] is 108 nM.
